# In patent US20210055311A1, “SCREENING METHOD FOR ESTROGENIC AND ANTI-ESTROGENIC ACTIVITY” (BUNDESINSTITUT FÜR RISIKOBEWERTUNG, priority 2018, published 2021):
# System: MCF-7/vBOS breast cancer cells
# Experiment: Cell stiffness by atomic force microscopy (AFM) indentation
# Format: cell-based, human
# Protocol: FIG. 10 illustrates that inhibition of ERα signaling increases tissue stability by modulating cell mechanics and cell motility. (A) Quantification of cell stiffness (Apparent elastic (Young's) modulus) by atomic force microscopy (AFM) indentation measurements on cells treated with fulvestrant for 48 hours (ERepl.1=0.7141±0.1193 kPa; ERepl.2=0.651±0.1407 kPa; ERepl.3=0.5938±0.1564 kPa; mean±s.d.) compared to solvent control cells (, ERepl.1=0.4841±0.1194 kPa; ERepl.2=0.4088±0.1513 kPa; ERepl.3=0.4660±0.1189 kPa). Biological replicates, n=3; 50-60 cells per condition. Boxes, 25th, 50th (median), and 75th percentiles. Whiskers, 10th and 90th percentiles. Cross, mean for each group. Statistical testing, Mann-Whitney tests; **, p values<0.01. (B) Quantification of cell motility (velocity) by manual tracking of cells treated with fulvestrant for 48 hours (VRepl.1=0.0613±0.0176 μm/min; VRepl.2=0.0553±0.0157 μm/min; VRepl.3=0.051±0.014 μm/min; mean±s.d.) compared to solvent control cells (VRepl.1=0.113±0.0237 μm/min; VRepl.2=0.0757±0.023 μm/min; VRepl.3=0.0827±0.0174 μm/min). Biological replicates, n=3; 3 fields with 10 cells each per replicate and condition were imaged every 10 minutes over the course of 16 h. Boxes, 25th, 50th (median), and 75th percentiles. Whiskers, 10th and 90th percentiles. Cross, mean for each group. Statistical testing, Mann-Whitney tests; **, p values<0.01.
# To test whether anti-estrogens also impact on the biomechanical properties of MCF-7/vBOS breast cancer cells, the inventors performed atomic force microscopy (AFM) indentation measurements on confluent monolayers. For this purpose, MCF7/vBos cells were grown and treated in 35 mm FluoroDish cell culture dishes (WPI) as described above. AFM indentation measurements were performed in CO2 Independent Medium (Gibco) at 37° C. using the NanoWizard 1 or 4 (JPK Instruments). Prior to measurements, tip-less Arrow-TLlsilicone cantilevers (Nanoworld) were equipped with polystyrene beads of 5 μm in diameter (microParticles GmbH, Germany) using epoxy glue, and calibrated using built-in procedures of the SPM software (JPK Instruments). The cantilever was positioned above the confluent epithelial monolayer and lowered with a speed of 10 μm/s. In each experiment, force-distance curves (force setpoint 2.5 nN) from 3-4 different positions per cell were collected. Force-distance curves were transformed into force-versus-tip sample separation curves according to Radmacher (Methods Cell Biol 2002; 68:67-90), and fitted with the Hertz/Sneddon model (27) for a spherical indenter using the JPK Data Processing software (JPK Instruments). […] Apparent elastic (Young's) moduli were determined using the Hertz model for a quadratic pyramid using the JPK Data Processing software (JPK Instruments).
structure (smiles),measurement,setting,value
C[C@]12CC[C@@H]3c4ccc(O)cc4C[C@@H](CCCCCCCCC[S+]([O-])CCCC(F)(F)C(F)(F)F)[C@H]3[C@@H]1CC[C@@H]2O (stereo partly shown) [Fulvestrant],cell rigidity,"throughout the cell surface and at junctional regions, vs solvent control",significantly elevated
same,"Apparent elastic (Young's) modulus, Repl.1","treated 48 hours, mean±s.d., replicate 1",0.7141±0.1193 kPa
same,"Apparent elastic (Young's) modulus, Repl.2","treated 48 hours, mean±s.d., replicate 2",0.651±0.1407 kPa
same,"Apparent elastic (Young's) modulus, Repl.3","treated 48 hours, mean±s.d., replicate 3",0.5938±0.1564 kPa
